From patent publication US20200230247A1, “COMBINATION THERAPIES COMPRISING TARGETED THERAPEUTICS” (TARVEDA THERAPEUTICS, INC., priority 2017, published 2020)

Tested on: NCI-H69 (small cell lung cancer) tumors
Test: Antitumor efficacy in mice bearing NCI-H69 tumors
Format: in vivo
Settings: Conjugate 1 12.5 mpk once per week IV, Talazoparib 0.33 mpk PO daily 4 days on/three days off, combo: Talazoparib starting 24 hrs post Conjugate 1 dose, tumor volumes measured up to 16 days after treatment
Protocol: Mice bearing NCI-H69 (small cell lung cancer) tumors were treated with the following.
1). Vehicle controls; 2). 12.5 mpk (mg per kilogram) of Conjugate 1 once per week via intravenous administration (IV); 3). 0.33 mpk Talazoparib daily for 4 days on/three days off via oral administration (PO); 4). 12.5 mpk Conjugate 1 once per week via IV, and 0.33 mpk Talazoparib daily for 4 days on/three days off starting 24 hrs post Conjugate 1 dose.
Tumor volumes were measured 3 days, 8 days, 10 days, 13 days and 16 days after treatment.

SMILES | Tumor Growth Inhibition (TGI %) [%]
Cn1ncnc1[C@H]1c2n[nH]c(=O)c3cc(F)cc(c23)N[C@@H]1c1ccc(F)cc1 [Talazoparib, talazoparib] | 15.66
CCc1c2c(nc3ccc(OC(=O)N4CCC(CCn5ccc6cc(-n7c(O)nnc7-c7cc(C(C)C)c(O)cc7O)ccc65)CC4)cc13)-c1cc3c(c(=O)n1C2)COC(=O)[C@]3(O)CC [Conjugate 1, (S)-4,11-diethyl-4-hydroxy-3,14-dioxo-3,4,12,14-tetrahydro-1H-pyrano[3′,4′:6,7]indolizino[1,2-b]quinolin-9-yl 4-(2-(5-(3-(2,4-dihydroxy-5-isopropylphenyl)-5-hydroxy-4H-1,2,4-triazol-4-yl)-1H-indol-1-yl)ethyl)piperidine-1-carboxylate] | 50.67
